Results reported in US12662705B2, “Interferon pathway genes regulate and predict efficacy of immunotherapy” (THE TRUSTEES OF THE UNIVERSITY OF PENNSYLVANIA, priority 2018, dated 2026).
pIC50: −log10 of the molar value. “Also recorded” adds a separate entry of the source.

Key:
[1] = molecular target: JAK1 (Homo sapiens, UniProt P23458); settings: read-out: half maximal inhibitory concentration [IC50]; cited from earlier work
[2] = total daily dose 1200 mg; cited from earlier work
[3] = tested on: IFNGR knockout Res 499 tumors; assay: In vivo cytokine rescue studies in CD8 T cell-depleted mice; design: species or system mouse; settings: direct intratumoral injection
Procedure: In vivo cytokine rescue studies: All mice were pre-treated with anti-CD8 two days before tumor injection. Either 1 μg IFNg or 100 ng CXCL10 was mixed in the PBS/tumor cell suspension prior to injection of the tumor. Mice then continued receiving 500-1000 ng IFNG or 100 ng CXCL10 intra/peritumorally every 3 days post-tumor implantation. For flow cytometry experiments, mice were harvested at day 13 to examine the effects of cytokine addback on immune recruitment in the absence of CD8 T cells. For survival experiments, intra/peritumoral injections continued every 3 days for the remainder of the experiment.

[4] = tested on: PD-L1 positive advanced NSCLC; settings: cited from earlier work

Sequence of JAK1 (P23458 whole entry): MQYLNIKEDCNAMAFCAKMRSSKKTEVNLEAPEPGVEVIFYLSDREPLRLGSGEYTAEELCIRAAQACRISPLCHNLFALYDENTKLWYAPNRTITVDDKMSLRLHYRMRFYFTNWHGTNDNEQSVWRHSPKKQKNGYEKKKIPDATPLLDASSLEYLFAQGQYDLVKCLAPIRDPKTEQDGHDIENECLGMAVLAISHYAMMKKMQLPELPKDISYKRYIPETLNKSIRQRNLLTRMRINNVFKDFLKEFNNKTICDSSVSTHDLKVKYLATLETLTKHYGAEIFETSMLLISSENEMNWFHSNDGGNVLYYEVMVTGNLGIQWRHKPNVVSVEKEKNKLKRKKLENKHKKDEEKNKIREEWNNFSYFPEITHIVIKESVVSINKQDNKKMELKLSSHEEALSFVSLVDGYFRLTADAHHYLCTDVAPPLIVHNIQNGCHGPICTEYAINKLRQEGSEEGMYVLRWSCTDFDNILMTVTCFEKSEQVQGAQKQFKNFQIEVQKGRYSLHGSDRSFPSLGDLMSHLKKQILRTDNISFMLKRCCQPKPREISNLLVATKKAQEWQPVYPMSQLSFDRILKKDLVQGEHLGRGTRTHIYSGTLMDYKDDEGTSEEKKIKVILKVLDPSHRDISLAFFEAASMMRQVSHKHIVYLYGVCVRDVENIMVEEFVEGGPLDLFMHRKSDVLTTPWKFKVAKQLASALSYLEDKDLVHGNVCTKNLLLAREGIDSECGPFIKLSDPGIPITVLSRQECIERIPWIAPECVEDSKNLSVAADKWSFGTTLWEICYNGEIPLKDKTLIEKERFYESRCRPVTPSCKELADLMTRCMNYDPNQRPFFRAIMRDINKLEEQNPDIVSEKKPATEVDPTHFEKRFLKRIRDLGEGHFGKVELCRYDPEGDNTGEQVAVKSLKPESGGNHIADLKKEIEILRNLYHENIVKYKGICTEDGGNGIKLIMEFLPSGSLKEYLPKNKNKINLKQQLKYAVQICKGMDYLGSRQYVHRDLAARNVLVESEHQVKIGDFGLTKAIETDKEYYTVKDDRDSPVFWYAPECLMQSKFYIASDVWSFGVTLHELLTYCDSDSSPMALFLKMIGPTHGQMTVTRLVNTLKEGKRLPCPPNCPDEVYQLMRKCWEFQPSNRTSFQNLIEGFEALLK

## N#CCC1(n2cc(-c3ncnc4[nH]ccc34)cn2)CN(C2CCN(C(=O)c3ccnc(C(F)(F)F)c3F)CC2)C1 [Itacitinib]
[1]
  pIC50: 8.44
[2]
  adverse events at highest total daily dose: no adverse events

## CXCL10: IFNG-regulated CXCR3 ligand chemokine injected intra/peritumorally
[3]
  rescue of the decrease in NK/ILC frequency after CD8 T cell depletion: partially rescue

## Pembrolizumab: humanized monoclonal antibody of the IgG4/kappa isotype blocking the interaction between PD-1 and its ligands
[4]; PD-L1 expression greater than or equal to 50%
  overall and progression free survival versus platinum doublet chemotherapy: superior overall and progression free survival; also recorded: improve overall survival and progression free survival
[4]; first line NSCLC, tumors expressing high level of PD-L1 (>50%)
  response rate: 44.8%
[4]; untreated PD-L1 positive advanced NSCLC
  ORR: 45%
